The numbers were not newly measured in patent US20110319467A1, “Absorption Enhancement of Statins and Omega Fatty Acids” (priority 2010, published 2011), which cites them from elsewhere.

For the data set the following is noted: single emulsifier.

For Polyoxyethylene sorbitan monooleate, the HLB value result is listed as “about 15”.
